Measurements from ChEMBL document CHEMBL5053515, “Insights into Ergochromes of the Plant Pathogen Claviceps purpurea” (J Nat Prod, 2021).
Calls of active or inactive are those of the source. The calls are words filed in the database; no cut-off is given here.

Columns and labels:
HepG2 [1] = experiment: Cytotoxicity against human HepG2 cells assessed as reduction in cell viability measured at 48 hrs by resazurin reagent based assay; assay type: functional; settings: HepG2, 48 h
CCF-STTG1 = experiment: Cytotoxicity against human CCF-STTG1 cells assessed as reduction in cell viability measured at 48 hrs by resazurin reagent based assay; assay type: functional; settings: CCF-STTG1, 48 h
HepG2 [2] = experiment: Cytotoxicity against human HepG2 cells assessed as reduction in cell viability at up to 100 uM measured at 48 hrs by resazurin reagent based assay; assay type: functional
[3] = molecular target: DNA topoisomerase 2-alpha (Homo sapiens) (UniProt P11388); experiment: Inhibition of human topoisomerase 2a assessed as reduction in decatenation of kinetoplast DNA at 25 uM using kinetoplast DNA as substrate incubated for 2 hrs by ethidium bromide staining based agarose gel electrophoresis method relative to control
[4] = molecular target: T1, DNA topoisomerase 1 (Homo sapiens) (UniProt P11387); experiment: Inhibition of topoisomerase 1 (unknown origin) assessed as relaxation of supercoiled plasmid pUC18 measured after 30 mins by ethidium bromide staining based agarose gel electrophoresis
T1 sequence (whole entry): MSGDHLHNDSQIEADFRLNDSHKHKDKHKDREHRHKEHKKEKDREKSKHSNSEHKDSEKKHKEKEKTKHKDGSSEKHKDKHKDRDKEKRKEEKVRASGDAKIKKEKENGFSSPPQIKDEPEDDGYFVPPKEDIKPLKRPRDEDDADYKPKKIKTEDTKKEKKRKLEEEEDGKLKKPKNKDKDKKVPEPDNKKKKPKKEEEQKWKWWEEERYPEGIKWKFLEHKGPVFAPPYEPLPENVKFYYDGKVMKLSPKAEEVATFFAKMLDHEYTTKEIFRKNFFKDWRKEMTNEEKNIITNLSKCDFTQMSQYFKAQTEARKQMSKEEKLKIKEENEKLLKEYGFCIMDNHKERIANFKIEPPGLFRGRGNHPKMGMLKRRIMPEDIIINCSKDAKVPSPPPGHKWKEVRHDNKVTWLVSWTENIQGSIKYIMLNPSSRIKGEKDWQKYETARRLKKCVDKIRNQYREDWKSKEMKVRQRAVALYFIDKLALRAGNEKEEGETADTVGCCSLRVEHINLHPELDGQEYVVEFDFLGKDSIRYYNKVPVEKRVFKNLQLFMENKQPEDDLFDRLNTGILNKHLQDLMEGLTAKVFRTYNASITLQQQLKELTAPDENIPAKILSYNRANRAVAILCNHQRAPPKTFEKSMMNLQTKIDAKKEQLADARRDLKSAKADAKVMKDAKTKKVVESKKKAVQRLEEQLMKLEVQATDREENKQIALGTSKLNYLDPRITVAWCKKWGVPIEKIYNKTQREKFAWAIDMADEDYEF

[5] = molecular target: T1, DNA topoisomerase 1 (Homo sapiens); experiment: Inhibition of topoisomerase 1 (unknown origin) assessed as relaxation of supercoiled plasmid pUC18 DNA at 100 uM measured after 30 mins by ethidium bromide staining based agarose gel electrophoresis relative to control
HepG2 [6] = experiment: Cytotoxicity against human HepG2 cells assessed as reduction in cell viability at 100 uM measured at 48 hrs by resazurin reagent based assay relative to control; assay type: functional

Sequence of DNA topoisomerase 2-alpha (Homo sapiens) (P11388 whole entry): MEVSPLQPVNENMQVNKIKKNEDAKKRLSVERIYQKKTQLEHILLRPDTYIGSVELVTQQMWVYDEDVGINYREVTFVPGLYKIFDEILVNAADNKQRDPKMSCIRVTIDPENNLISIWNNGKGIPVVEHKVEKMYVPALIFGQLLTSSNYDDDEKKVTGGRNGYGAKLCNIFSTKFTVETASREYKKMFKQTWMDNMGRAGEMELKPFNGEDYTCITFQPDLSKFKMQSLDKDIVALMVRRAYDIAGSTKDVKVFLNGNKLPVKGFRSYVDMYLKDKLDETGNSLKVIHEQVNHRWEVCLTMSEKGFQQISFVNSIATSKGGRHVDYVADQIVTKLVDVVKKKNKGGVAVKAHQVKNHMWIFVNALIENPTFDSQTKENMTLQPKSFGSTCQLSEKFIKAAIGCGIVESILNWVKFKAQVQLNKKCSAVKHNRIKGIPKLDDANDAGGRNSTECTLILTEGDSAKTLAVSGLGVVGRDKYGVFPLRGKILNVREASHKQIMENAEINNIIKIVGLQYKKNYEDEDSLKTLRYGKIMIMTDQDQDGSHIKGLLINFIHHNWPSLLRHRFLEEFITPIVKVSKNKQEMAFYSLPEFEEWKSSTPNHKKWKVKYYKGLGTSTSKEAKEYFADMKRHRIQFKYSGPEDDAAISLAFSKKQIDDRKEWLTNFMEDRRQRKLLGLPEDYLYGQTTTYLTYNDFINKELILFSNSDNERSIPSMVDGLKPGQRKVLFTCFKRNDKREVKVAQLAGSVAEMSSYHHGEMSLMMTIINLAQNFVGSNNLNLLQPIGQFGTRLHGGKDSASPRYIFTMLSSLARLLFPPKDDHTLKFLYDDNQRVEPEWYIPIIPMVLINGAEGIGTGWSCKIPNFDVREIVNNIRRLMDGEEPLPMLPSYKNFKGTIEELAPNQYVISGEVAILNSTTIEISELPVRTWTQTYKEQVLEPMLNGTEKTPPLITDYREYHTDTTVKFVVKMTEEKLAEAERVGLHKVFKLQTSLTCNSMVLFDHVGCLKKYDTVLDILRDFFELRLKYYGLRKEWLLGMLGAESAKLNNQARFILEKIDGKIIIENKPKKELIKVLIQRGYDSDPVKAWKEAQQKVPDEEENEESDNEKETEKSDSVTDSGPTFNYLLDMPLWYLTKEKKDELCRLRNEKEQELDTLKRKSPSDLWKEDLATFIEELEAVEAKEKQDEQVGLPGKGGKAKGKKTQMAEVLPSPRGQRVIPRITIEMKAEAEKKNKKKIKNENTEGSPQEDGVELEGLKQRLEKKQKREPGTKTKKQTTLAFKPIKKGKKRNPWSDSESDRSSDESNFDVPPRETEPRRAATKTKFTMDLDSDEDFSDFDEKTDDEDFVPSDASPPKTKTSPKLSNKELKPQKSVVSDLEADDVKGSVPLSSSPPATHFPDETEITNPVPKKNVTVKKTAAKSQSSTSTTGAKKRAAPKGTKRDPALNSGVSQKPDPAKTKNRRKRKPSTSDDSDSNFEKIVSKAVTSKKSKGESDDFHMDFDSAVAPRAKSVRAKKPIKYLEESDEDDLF

Row | Compound | IC50 (HepG2 [1]) [nM] | IC50 (CCF-STTG1) [nM] | Activity (HepG2 [2]) | inhibition [3] | inhibition [4] | inhibition [5] [%] | Activity (HepG2 [6]) [%]
1 | COC(=O)[C@]12Oc3ccc(-c4ccc(O)c5c4O[C@@]4(C(=O)OC)C(=C(O)C[C@@H](C)[C@@H]4O)C5=O)c(O)c3C(=O)C1=C(O)C[C@@H](C)[C@@H]2O | 900 | 1000 | – | – | – | – | –
2 | COC(=O)[C@]12Oc3c(-c4ccc(O)c5c4O[C@@]4(C(=O)OC)C(=C(O)C[C@@H](C)[C@@H]4O)C5=O)ccc(O)c3C(=O)C1=C(O)C[C@@H](C)[C@@H]2O | 900 | 1000 | – | – | – | – | –
3 | Cc1cc2c(c(O)c1C(=O)O)C(=O)c1c(O)cc(O)c(O)c1C2=O | – | – | inactive | – | – | – | –
4 | COC(=O)[C@]12Oc3ccc(-c4ccc5c(c4O)C(=O)C4(O)C(=O)C[C@@H](C)[C@H](O)[C@@]4(C(=O)OC)O5)c(O)c3C(=O)C1(O)C(=O)C[C@@H](C)[C@@H]2O (stereo partly specified) | 53600 | 13400 | – | – | – | – | –
5 | Cc1cc2c(c(O)c1C(=O)O)C(=O)c1c(O)cc(O)cc1C2=O | – | – | inactive | – | – | – | –
6 | COC(=O)[C@]12Oc3ccc(-c4ccc5c(c4O)C(=O)C4=C(O)C[C@@H](C)[C@H](O)[C@@]4(C(=O)OC)O5)c(O)c3C(=O)C1=C(O)C[C@@H](C)[C@@H]2O [SECALONIC ACID A] | 900 | 1000 | – | 100% | Dose-dependent effect | 100 | –
7 | C[C@@H]1C[C@@]2(O)OC(=O)[C@@]3(Oc4ccc(-c5ccc6c(c5O)C(=O)C5(O)[C@@]7(O)C[C@@H](C)[C@H](O)[C@]5(O6)C(=O)O7)c(O)c4C(=O)C23O)[C@H]1O (stereo partly specified) | 59900 | 2300 | – | inactive | inactive | – | 3
8 | COC(=O)[C@@]1(C(O)C(C)CC(=O)O)CC(=O)c2c(ccc(-c3ccc4c(c3O)C(=O)C3(O)C(O)C[C@@H](C)[C@H](O)[C@@]3(C(=O)O)O4)c2O)O1 (stereo partly specified) | – | 7500 | – | inactive | inactive | – | –
